Key:
[1] = Cytotoxicity Determination; assay type: cell-based; details: human, HEp-2 cells, without addition of virus, CCK-8 readout, bins (Table 4: greater than 100 μM; Table 5: equal to or less than 100 μM and greater than 10 μM), read-out: 50% cytotoxicity concentration (CC50)
Outline: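 CC50 was derived from CCK-8 optical density after a 3-4 h reagent incubation. Before that, cells without virus had been treated for 5 days at 37 °C, 5% CO2 with compound at seven ½-step final concentrations from 100 μM, in duplicate wells.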

[2] = system: Respiratory Syncytial Virus (RSV) long strain (ATCC#VR-26); assay: RSV Antiviral Assay (CPE reduction assay); assay type: cell-based; details: human respiratory syncytial virus, 120 h; HEp-2 cells infected with RSV long strain, 5 days, CCK-8 readout; bins (Table 2: less than 1 μM; Table 3: equal to or higher than 1 μM and less than 50 μM); read-out: 50% effective concentration (EC50)
Outline: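 Cytopathic-effect protection measured after 5 days at 37 °C, 5% CO2 via CCK-8 dehydrogenase readout at 450 nm (630 nm reference), EC50 regressed from mean O.D. Host HEp-2 cells received RSV long strain at 100 TCID50/well; compound 9-point ⅓ series starting 100 μM or 1 μM, 1% DMSO, duplicate wells.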

SMILES | CC50 at 5 days [1] [µM] | EC50 [2] [µM]
CCCC/C(=N/NC(=O)CNC(=O)c1ccc(OCC)c(OC)c1)c1csc2c(F)cccc12 [Compound 462B] | 10 to 100 | < 1
COc1ccc(C(=O)NCC(=O)c2ccc(OC)c(-c3ccnc(Cl)c3)n2)cc1OC [Compound 1536] | > 100 | 1 to 50
COc1cc(C(=O)NCC(=O)c2ccc(OC)c(-c3ccc(F)c(C(F)F)c3)n2)ccc1OCCO [Compound 1327] | > 100 | < 1
COc1cc(C(=O)N[C@H](CCCCN)C(=O)c2ccc(OC)c(-c3csc4c(F)cccc34)n2)ccc1OCCO [Compound 1836] | 10 to 100 | 1 to 50
COc1ccc(C(=O)NCC(=O)c2ccc(OC)c(-c3ccnc(F)c3)n2)cc1OC [Compound 1535] | > 100 | 1 to 50
C/C(=N\NC(=O)CNC(=O)c1ccc2c(c1)OCCN2C)c1csc2ccccc12 [Compound 470] | > 100 | 1 to 50
COc1cc(C(=O)NCC(=O)c2ccc(OC)c(-c3ccc(S(C)(=O)=O)cc3)n2)ccc1OCCO [Compound 1604] | > 100 | 1 to 50
COc1ccc(C(=O)NCC(=O)c2ncc(-c3csc4c(F)cccc34)[nH]2)cc1OC [Compound 1352] | 10 to 100 | 1 to 50
COc1ccc(C(=O)NCC(=O)c2ccc(OC)c(-c3cn[nH]c3)n2)cc1OC [Compound 1533] | > 100 | 1 to 50
COc1ccc(C(=O)NCC(=O)c2ccc(OC)c(-c3ccc4cn(C)nc4c3)n2)cc1OC [Compound 1538] | > 100 | 1 to 50
CCN(CC)c1ccc(C(=O)NCC(=O)N/N=C/c2csc3ccccc23)cc1 [Compound 235] | > 100 | 1 to 50
COCc1ccc(C(=O)NCC(=O)c2ccc(OC)c(-c3ccc(F)c(Cl)c3)n2)cc1OC [Compound 1323] | 10 to 100 | < 1
COc1ccc(C(=O)NCC(=O)N/N=C(\CC#N)c2csc3ccccc23)cc1OC [Compound 456] | > 100 | 1 to 50
COc1cc(C(=O)CNC(=O)c2ccc(OCCN)c(OC)c2)nc(-c2csc3c(F)cccc23)c1 [Compound 1214] | 10 to 100 | < 1
COc1cc(C(=O)NCC(=O)c2ccc(OC)c(-c3ccncc3)n2)ccc1OCCO [Compound 1619] | > 100 | 1 to 50
COc1ccc(C(=O)NCC(=O)c2cc(C3CC3)cc(-c3csc4c(F)cccc34)n2)cc1OC [Compound 1249] | > 100 | 1 to 50
COc1ccc(C(=O)NCC(=O)N/N=C2\CCc3sc4ccccc4c32)cc1OC [Compound 418] | 10 to 100 | 1 to 50
COc1ccc(C(=O)NCC(=O)c2ccc(OC)c(-c3c(C)sc4cccnc34)n2)cc1OC [Compound 1502] | > 100 | 1 to 50
COc1cc(C(=O)NCC(=O)c2ccc(OC)c(-c3n[nH]c4ccccc34)n2)ccc1OCCO [Compound 1346] | > 100 | 1 to 50
COc1cc(C(=O)NCC(=O)c2ccc(OC)c(-c3ccccc3)n2)ccc1OCCO [Compound 1613] | > 100 | < 1
COc1ccc(C(=O)NCC(=O)c2ccc(OC)c(-c3cccc4ncccc34)n2)cc1OC [Compound 1519] | 10 to 100 | 1 to 50
COc1cc(C(=O)NCC(=O)c2c[nH]c(-c3csc4c(F)cccc34)n2)ccc1OCCO [Compound 1240] | > 100 | 1 to 50
COc1ccc(C(=O)CNC(=O)c2cc(C)on2)nc1-c1ccc(F)c(Cl)c1 [Compound 4202] | > 100 | 1 to 50
COc1cc(C(=O)NCC(=O)c2ccc(OC)c(-c3coc4c(F)cccc34)n2)ccc1OCCO [Compound 1343] | > 100 | < 1

From patent publication US9724351B2, “Compounds for the treatment of paramoxyvirus viral infections” (priority 2012, dated 2017)
